How the values were obtained:
[1] = system: MOG-induced experimental autoimmune encephalomyelitis mouse model; experiment: Activity assessment 5 in MOG-induced experimental autoimmune encephalomyelitis mouse model; format: in vivo, C57BL/6J mice; conditions: 10 mg/kg orally twice daily for 15 days starting 52 days after MOG35-55 inoculation; vs vehicle-dosing group (2.13)
Description: (§1) A PBS solution prepared to contain a synthetic partial peptide of MOG (MOG35-55; CSBio) at a concentration of 4 mg/mL was mixed with an equal volume of Freund's complete adjuvant, and a total of 0.1 mL (0.05 mL per flank) of the resulting MOG35-55 dosing solution was inoculated intradermally into the bilateral flanks of C57BL/6J mice (male, 10 weeks old, Charles River Laboratories Japan, Inc.). On the day of inoculation of the MOG35-55 dosing solution and on the second day after the inoculation, 200 μL of pertussis toxin (Sigma Co. LLC) prepared at a concentration of 1 μg/mL was further administered intraperitoneally to the mice.
(§2) The compound of Example 11, the compound of Example 32, and the compound of Example 36 were used as test compounds to assess the effect of the test compounds on increase of neurological score in the MOG-induced experimental autoimmune encephalomyelitis mouse model. […] In addition, the score was determined by the following criteria: 0, normal; 0.5, partial drooping tail; 1, full drooping tail or hind-limb weakness; 2, full drooping tail and hind-limb weakness; 3, hind-limb partial paralysis; 4, hind-limb complete paralysis; 5, fore- and hind-limb complete paralysis. […]

[2] = In vitro radical scavenging action (DPPH method); conditions: 30 minutes at room temperature, maximum concentration 100 μmol/L
[3] = system: Human fibrosarcoma cells (HT-1080 cells); experiment: In vitro inhibitory action against ferroptosis (Erastin-induced cell death, Cell Counting Kit-8); format: cell-based; conditions: Erastin 3 μmol/L, 24 hours
[4] = system: MOG-induced experimental autoimmune encephalomyelitis mouse model; experiment: Activity assessment 4 in MOG-induced experimental autoimmune encephalomyelitis mouse model; format: in vivo, C57BL/6J mice; conditions: 10 mg/kg orally twice daily for 16 days starting 52 days after MOG35-55 inoculation; vs vehicle-dosing group (2.25)
Description: as §1, §2

[5] = system: MOG-induced experimental autoimmune encephalomyelitis mouse model; experiment: Activity assessment 6 in MOG-induced experimental autoimmune encephalomyelitis mouse model; format: in vivo, C57BL/6J mice; conditions: 10 mg/kg orally twice daily for 12 days starting 52 days after MOG35-55 inoculation; vs vehicle-dosing group (2.13)
Description: as §1, §2

[6] = evaluation concentration 30 μmol/L
[7] = evaluation concentration 10 μmol/L

EC50 [2] [µM]	SMILES	neurological score reduction rate [1] [%]	Ferroptosis inhibition rate (%) [3, 6] [%]	neurological score reduction rate [4] [%]	neurological score reduction rate [5] [%]	Ferroptosis inhibition rate (%) [3, 7] [%]
> 100	NS(=O)(=O)c1ccc(C2CCc3ccccc3N2)cc1 (stereo not drawn) [Example 33, 4-(1,2,3,4-tetrahydroquinolin-2-yl)benzenesulfonamide]	38.2	84.88			
> 100	NC(=O)c1ccc(C2CCc3ccccc3N2)cc1 (stereo not drawn) [Example 38, 4-(1,2,3,4-tetrahydroquinolin-2-yl)benzamide]		104.0	27.8		
> 100	NS(=O)(=O)c1ccc(C2CCc3cc(F)ccc3N2)cc1 (stereo not drawn) [Example 108, 4-(6-fluoro-1,2,3,4-tetrahydroquinolin-2-yl)benzenesulfonamide]				29.4	83.78
> 100	NS(=O)(=O)c1ccc(C2CCc3cc(Cl)ccc3N2)cc1 (stereo not drawn) [Example 117, 4-(6-chloro-1,2,3,4-tetrahydroquinolin-2-yl)benzenesulfonamide]				32.4	76.27
> 100	Cc1ccc2c(c1)CCC(c1ccc(S(N)(=O)=O)cc1)N2 (stereo not drawn) [Example 119, 4-(6-methyl-1,2,3,4-tetrahydro-quinolin-2-yl)benzenesulfonamide]			33.3		89.67
